Columns and labels:
C57BL/6J mice [1] = assay: Disc angiogenesis system (DAS), fibrovascular growth into implanted disc; type: in vivo; conditions: for effect on nicotine-induced fibrovascular growth (systemic nicotine) / effect on nicotine-induced fibrovascular growth (local nicotine): oral supplementation: LNNA 6 mg/ml, indomethacin 20 mcg/ml; for effect on nicotine-induced fibrovascular growth (systemic nicotine): nicotine in drinking water; for effect on nicotine-induced fibrovascular growth (local nicotine): nicotine inside the DAS; for angiogenesis in comparison to vehicle: locally in disc pellet: bFGF 20 mcg, Del-1 0.2 M, nicotine 10^-6 M
Text: To study whether nicotine induces angiogenesis in vivo, we employed the disc angiogenesis system (DAS) (Kowalski et al. (1992) Exp Mol Pathol 56(1):1-19; Fajardo et al. (1998) Lab Invest 58:718-7244).
Preparation of the disc. The DAS consisted of a disc (11 mm in diameter and 1 mm thickness) made of a polyvinyl alcohol sponge (Kanebo PVA, RippeyCo., Santa Clara, Calif.). Both sides were covered with nitrocellulose cell-impermeable filters (Millipore filters, […] in pore diameter, Millipore, SF, Calif.) of the same diameter as the sponge disc, fixed to the sponge using Millipore glue#1 (xx70000.00, Millipore). As a result, cells (and thus vessels) could penetrate or exit only through the rim of the disc (Kowalski et al. (1992) Exp Mol Pathol 56(1):1-19; Fajardo et al. (1998) Lab Invest 58:718-7244).
In order to study the local effect of nicotine on angiogenesis, nicotine was placed in a pellet which was added directly to the disc. Briefly, a 1.5-mm core (pellet) was cut from the disc center. Both the pellets and discs were sterilized prior to assembly in a laminar flow hood. The pellet was loaded with up to 20 mcl of the nicotine solution and subsequently air-dried. We placed in the disc pellets with either vehicle (PBS, Sigma, Chemical Co., St Louis, Mo., n=5) or nicotine (10^-6 M, Aldrich Chemical Company, Milwaukee, Wis., n=5) to study the effects of locally administered nicotine. For comparison, in some cases basic fibroblast growth factor (bFGF; 20 mcg) or Del-1 protein (0.2 M) was added to the pellet, rather than nicotine. Both bFGF and Del-1 are known to induce angiogenesis. The pellet was then coated with ethylene-vinyl acetate co-polymer (Elvax, Dupont, Chemcentral Corp., Chicago, Ill.) which would permit slow release of the nicotine from the pellet into the disc. The pellet was then re-inserted into the disc before sealing the disc with the millipore filters.
To study the systemic effects of nicotine, in some cases the animals were administered nicotine in their drinking water (see below).
Implantation of the disc. The mice were anesthetized with 4% chloralhydrate [intraperitoneal administration (i.p.), 0.1 cc/10 g body weight]. The flanks and posterior surface of the thorax were shaved and cleaned with saturated 70% isopropyl alcohol. A 2-cm incision was made in the skin of the flank contra-lateral to the implantation site. Blunt dissection through the subcutaneous tissue produced a channel into which the saline moistened disc was inserted. The skin was closed with 5.0 silk suture (Kowalski et al. (1992) Exp Mol Pathol 56(1):1-19; Fajardo et al. (1998) Lab Invest 58:718-7244).
Disc removal and preparation. Two weeks after disc implantation, the mice were sacrificed with an overdose of 4% chloral hydrate (i.p.) and cervical dislocation. A careful incision was made next to the skin overlying the implanted disc, and the disc was gently removed from the implantation site. Attached tissue was carefully detached from the disc. After removing the disc, one filter was separated from the disc. Discs were then fixed in 10% formalin and embedded flat in paraffin. Subsequently, […] sections were made in a plane through the center of the disc and parallel to the disc surface.
Quantitation of results. The disc sections were stained with H&E for light microscopy and histomorphometric measurement of radial growth, and stained with toluidine blue for quantitative determination of total area of fibrovascular growth. Using a video microscope and a computer assisted digital image analysis system (NIH Image 1.59b9), the entire area of fibrovascular growth in the toluidine blue stained disc was calculated and expressed in mm^2. As described in a previous study, total fibrovascular growth area is directly proportional to the total area of the disc occupied by blood vessels (Kowalski et al. (1992) Exp Mol Pathol 56(1):1-19; Fajardo et al. (1998) Lab Invest 58:718-7244).

endothelial cells = assay: Endothelial cell (EC) migration assay; type: cell-based
Text: In this experiment, the effects of VEGF, FGF and nicotine in an endothelial cell (EC) migration assay were observed. The EC migration assay involves growing a confluent endothelial monolayer, and then scraping away half of the cells. The number of endothelial cells that migrate over time into the denuded region was observed. Unstimulated cells will migrate into the region. Angiogenic agents will accelerate this migration.
In this histogram shown in FIG. 8, the number of migrating cells is expressed as a percentage of the number of endothelial cells migrating into the region under unstimulated conditions.

C57BL/6J mice [2] = tested on: C57BL/6J mice
Experimental: Murine Ischemic Hindlimb Model of Peripheral Arterial Disease (PAD). Mice were anesthetized with 4% chloral hydrate [intraperitoneal administration (i.p.), 0.1 cc/10 g body weight). The medial surface of both hindlimbs were shaved and then cleaned with betadine solution. A 1.5-cm longitudinal incision was performed, extending from the knee to the inguinal ligament. Through this incision, the superficial femoral artery was dissected free along its length. After the distal ends of both the external iliac and superficial femoral arteries were ligated with 7.0 (Ethicon), complete excision of the femoral artery was performed. An additional set of mice underwent sham operation. The incisions were then closed with discontinuous stitches of 5.0 silk suture (Ethicon). Ampicillin (1 mg/10 gm body weight) intraperitoneal injection was administered after surgical procedure.
Tissue Preparation. Three weeks after surgery, mice were euthanized with an overdose of 4% chloral hydrate (i.p) and cervical dislocation, and the adductor and semimembranous muscles were collected for capillary density assessment. Briefly, a longitudinal incision in the medial thigh was made to expose the entire hindlimb muscle. The adductor and semimembranous muscles were removed and immediately frozen in OCT. Subsequently, sections 5 μm were taken from the mid-region of each muscle in a transverse orientation. The sections were air dried and fixed in acetone.
Capillary Densitometry. Immunohistochemistry was performed using an alkaline phosphatase assay to identify the endothelial cells. An eosin counterstain was used to differentiate myocytes. Capillaries and myocytes were identified and counted using light microscopy (20×). For each section, four different fields were selected and the total number of capillaries and myocytes per field determined. These values were averaged to provide a determination of capillary density for each experimental limb. To ensure that value for capillary density was not overestimated due to muscle atrophy, or underestimated due to interstitial edema, capillary density was expressed as a ratio of capillaries to myocytes present in the same field.
Daily intramuscular injections of nicotine solution or vehicle were administered (50 μl ) for a period of three weeks.

[3] = highest dose (3200 ng/kg = 3.2 μg/kg) i.m. daily for three weeks
[4] = VEGF 1 ng/ml, FGF, nicotine (FIG. 8)

NC(=NCCC[C@H](N)C(=O)O)N[N+](=O)[O-] [LNNA, L, nitro-arginine]
effect on nicotine-induced fibrovascular growth (systemic nicotine) (C57BL/6J mice [1]): blocked
effect on nicotine-induced fibrovascular growth (local nicotine) (C57BL/6J mice [1]): blocked the effects of nicotine

COc1ccc2c(c1)c(CC(=O)O)c(C)n2C(=O)c1ccc(Cl)cc1 [indomethacin]
effect on nicotine-induced fibrovascular growth (systemic nicotine) (C57BL/6J mice [1]): blocked
effect on nicotine-induced fibrovascular growth (local nicotine) (C57BL/6J mice [1]): blocked the effects of nicotine

CN(C)C(=O)Oc1cccc([N+](C)(C)C)c1 [neostigmine]
increase of EC migration (endothelial cells; 10^−6 M alone, relative to unstimulated cells): over 50%

CN1CCC[C@H]1c1cccnc1 [nicotine, S-3-(1-methyl-2-pyrrolidinyl)pyridine]
angiogenic potency relative to growth factors tested in DAS (Del1, bFGF) (C57BL/6J mice [1]; local effects in the disc angiogenesis system): as or more potent
area of fibrovascular growth into the disc (C57BL/6J mice [1]; local nicotine, 10^-6 M in pellet inside the disc, basal about 10 mm^2): about 20 mm^2
angiogenesis in comparison to vehicle (C57BL/6J mice [1]): increased angiogenesis to the same degree
angiogenesis, systemic versus local nicotine administration (C57BL/6J mice [1]; systemic nicotine (drinking water) compared with nicotine in disc): greater than local nicotine administration
angiogenesis, systemic administration versus locally administered bFGF and Del-1 (C57BL/6J mice [1]; systemic nicotine (drinking water), FIG. 4): much greater degree
area of fibrovascular growth into the disc (C57BL/6J mice [1]; systemic nicotine, 60 mcg/ml in drinking water, disc removed two weeks after implantation, basal somewhat greater than 10 mm^2): 35 mm^2
capillary density in the ischemic limb (C57BL/6J mice [2]; 0.03 μg/kg i.m. daily for three weeks, vehicle control 0.35): 0.67 capillaries/myocyte
angiogenic response in the ischemic limb at the highest dose (C57BL/6J mice [2]; [3]): angiogenesis was not increased
toxicity at the highest dose (interstitial edema and myocyte necrosis) (C57BL/6J mice [2]; [3]): some toxicity was observed
angiogenic effect in non-ischemic hindlimbs (C57BL/6J mice [2]; untreated non-ischemic limb of animals given i.m. nicotine in the ischemic limb): no angiogenic effect was detected
EC migration, number of migrating cells relative to unstimulated conditions (endothelial cells; [4]): same degree

VEGF
EC migration, number of migrating cells relative to unstimulated conditions (endothelial cells; [4]): increases EC migration to the same degree as FGF or Nicotine
EC migration, number of migrating cells relative to unstimulated conditions (endothelial cells; high dose VEGF 10 ng/ml): greatest response

bFGF: basic fibroblast growth factor, known to induce angiogenesis
angiogenesis in comparison to vehicle (C57BL/6J mice [1]): increased angiogenesis to the same degree

B1: Del1: Del-1 protein, known to induce angiogenesis (protein, UniProt O43854 24-480, looked up)
EGF-like repeat and discoidin …: DICDPNPCENGGICLPGLADGSFSCECPDGFTDPNCSSVVEVASDEEEPTSAGPCTPNPCHNGGTCEISEAYRGDTFIGYVCKCPRGFNGIHCQHNINECEVEPCKNGGICTDLVANYSCECPGEFMGRNCQYKCSGPLGIEGGIISNQQITASSTHRALFGLQKWYPYYARLNKKGLINAWTAAENDRWPWIQINLQRKMRVTGVITQGAKRIGSPEYIKSYKIAYSNDGKTWAMYKVKGTNEDMVFRGNIDNNTPYANSFTPPIKAQYVRLYPQVCRRHCTLRMELLGCELSGCSEPLGMKSGHIQDYQITASSIFRTLNMDMFTWEPRKARLDKQGKVNAWTSGHNDQSQWLQVDLLVPTKVTGIITQGAKDFGHVQFVGSYKLAYSNDGEHWTVYQDEKQRKDKVFQGNFDNDTHRKNVIDPPIYARHIRILPWSWYGRITLRSELLGCTEEE
angiogenesis in comparison to vehicle (C57BL/6J mice [1]): increased angiogenesis to the same degree
